According to patent publication US20140066324A1, “GENE EXPRESSION SIGNATURE IN SKIN PREDICTS RESPONSE TO MYCOPHENOLATE MOFETIL” (NORTHWESTERN UNIVERSITY, priority 2011, published 2014):

Tests used:
skin fibrosis = assay: Morphology of skin biopsy specimens, H&E staining of paraffin embedded sections; type: in vivo, human
Description: Patients seen at the Northwestern Scleroderma Program who met American College of Rheumatology criteria for SSc with a mRSS≧16 and would be receiving mycophenolate mofetil for the indication of progressive skin tightening were assessed. All patients provided written informed consent in accordance with the Institutional Review Board Guidelines of Northwestern University. Patients underwent a standardized physical exam, including mRSS performed by one clinician at study entry (prior to treatment) and at 6 months and 12 months post MMF initiation. […] from clinically involved skin (forearm) and clinically uninvolved skin (back) from the non-dominant side of the body. Two biopsies (one from forearm and back) were placed in RNAlater® (Applied Biosystems, Ambion®, Carlsbad, Calif., U.S.A.) and used for DNA microarray analysis and the other biopsy was placed in 10% neutral buffered formalin and used for histological analyses.
To confirm the physical exam finding of softened skin in MMF-responders, the morphology of skin biopsy specimens was examined using routine H&E staining of paraffin embedded sections.

[1] = SSc patients; cited from earlier work

| Molecule | extent of skin fibrosis, pre- vs post-treatment biopsies (skin fibrosis; MMF responders) | skin fibrosis and dermal appendages (skin fibrosis; MMF-nonresponder) | clinical response [1] |
| --- | --- | --- | --- |
| COc1c(C)c2c(c(O)c1C/C=C(\C)CCC(=O)OCCN1CCOCC1)C(=O)OC2 [MMF, mycophenolate mofetil] | clear differences in the extent of fibrosis between pre- and post-treatment biopsies in responders | greater degree in skin fibrosis and a further loss of the normal dermal appendages | – |
| rituximab | – | – | no clinical benefit |
